{"source": "patent US20040053972A1", "about": "“Medicinal compositions having improved absorbability” (priority 2000, published 2004)", "key": {"[1]": {"tested_on": "human breast cancer cell line BT-474", "assay": "In vitro inhibition of growth of breast cancer cell BT-474", "type": "cell-based", "details": "120 h, BT-474 cells, heregulin, cultured for 5 days, SRB staining", "method": "In vitro Inhibition of Growth of Breast Cancer Cell BT-474\nIn each well of a 96-well microtiter plate, 100 μl (containing 1,000 cells) of a cell suspension of human breast cancer cell line BT-474 was seeded and incubated at 37° C. in a 5% carbon dioxide gas incubator. On the next day, 100 μl of the 2-fold serial dilution of a solution of each test compound prepared by using 250 μl of a heregulin solution, which was adjusted so as to be the final concentration of 0.8 μg/mL, was added to each well and cultured for 5 days. The solution containing the test compound was removed and the cells were washed and fixed with a 50% trichloroacetic acid solution. To the cells was added a 0.4% (W/V) solution of pigment SRB (dissolved in 1% acetic acid) to fix as well as stain the cell protein (Skehan P. et al., Journal of the National Cancer Institute Vol. 82, pp. 1107-1112, 1990). The pigment solution was removed and the remainder was washed with a 1% acetic acid solution. Then, 100 μl of an extracting solution (10 mM Tris buffer) was added thereto to extract the pigment. The optical density of the extract at the wavelength of 550 nm was measured to determine the amount of the cells in terms of the amount of the protein. The proportion of the amount of remaining protein of each treated group was determined by taking the amount of protein of the control to which no solution of a test compound was added as 100% to calculate the value of the concentration of the compound required for inhibiting the remaining cells by 50% of that of the control (IC50)"}, "[2]": {"assay": "Measurement of size of crystalline particulate (laser diffraction/scattering)", "type": "physicochemical", "details": "distilled water as dispersion medium, SALD-2000A", "method": "The average particle size can be measured by using a per se known method and a measuring equipment. The term “average particle size” refers to a volume-average particle size as measured, for example, by a laser diffraction/scattering particle size distribution measuring apparatus (for example, SALD-2000A manufactured by Shimadzu Corporation). The particle size is usually measured by uniformly dispersing a HER2 inhibitor suspension at a concentration of about 1 to 100 μg/ml at room temperature while being subjected to ultra-sonication for a short period of time such as within 1 minute, or while stirring using a vortex mixer. The aqueous solvent used in the measurement is usually water, but buffer solutions having various pH's, a pseudo-body fluid and 0.5% methyl cellulose solution may be used. […]\nThe size of fine particles in the suspension of the drug of crystalline particulate obtained in Example 1 was measured. […] Further, the size of particles obtained by comminuting bulk of the compound of Reference Example B4, which was used in Example 1, with a jet mill was measured in the same manner.\nThe size of fine particles in the suspension of the drug of crystalline particulate obtained in Example 4a was measured. […] Further, crystalline particulate obtained in Example 8a were dispersed again in distilled water and the size of fine particles of the drug was measured in the same manner."}, "[3]": {"target": "T1, HER2 (Homo sapiens, UniProt P04626)", "T1 construct": "amount of phosphorylation of HER2 tyrosine of the cells; endogenous in cells; host or cells: MCF-7 human breast cancer cell line", "T1 sequence (P04626 23-1255)": "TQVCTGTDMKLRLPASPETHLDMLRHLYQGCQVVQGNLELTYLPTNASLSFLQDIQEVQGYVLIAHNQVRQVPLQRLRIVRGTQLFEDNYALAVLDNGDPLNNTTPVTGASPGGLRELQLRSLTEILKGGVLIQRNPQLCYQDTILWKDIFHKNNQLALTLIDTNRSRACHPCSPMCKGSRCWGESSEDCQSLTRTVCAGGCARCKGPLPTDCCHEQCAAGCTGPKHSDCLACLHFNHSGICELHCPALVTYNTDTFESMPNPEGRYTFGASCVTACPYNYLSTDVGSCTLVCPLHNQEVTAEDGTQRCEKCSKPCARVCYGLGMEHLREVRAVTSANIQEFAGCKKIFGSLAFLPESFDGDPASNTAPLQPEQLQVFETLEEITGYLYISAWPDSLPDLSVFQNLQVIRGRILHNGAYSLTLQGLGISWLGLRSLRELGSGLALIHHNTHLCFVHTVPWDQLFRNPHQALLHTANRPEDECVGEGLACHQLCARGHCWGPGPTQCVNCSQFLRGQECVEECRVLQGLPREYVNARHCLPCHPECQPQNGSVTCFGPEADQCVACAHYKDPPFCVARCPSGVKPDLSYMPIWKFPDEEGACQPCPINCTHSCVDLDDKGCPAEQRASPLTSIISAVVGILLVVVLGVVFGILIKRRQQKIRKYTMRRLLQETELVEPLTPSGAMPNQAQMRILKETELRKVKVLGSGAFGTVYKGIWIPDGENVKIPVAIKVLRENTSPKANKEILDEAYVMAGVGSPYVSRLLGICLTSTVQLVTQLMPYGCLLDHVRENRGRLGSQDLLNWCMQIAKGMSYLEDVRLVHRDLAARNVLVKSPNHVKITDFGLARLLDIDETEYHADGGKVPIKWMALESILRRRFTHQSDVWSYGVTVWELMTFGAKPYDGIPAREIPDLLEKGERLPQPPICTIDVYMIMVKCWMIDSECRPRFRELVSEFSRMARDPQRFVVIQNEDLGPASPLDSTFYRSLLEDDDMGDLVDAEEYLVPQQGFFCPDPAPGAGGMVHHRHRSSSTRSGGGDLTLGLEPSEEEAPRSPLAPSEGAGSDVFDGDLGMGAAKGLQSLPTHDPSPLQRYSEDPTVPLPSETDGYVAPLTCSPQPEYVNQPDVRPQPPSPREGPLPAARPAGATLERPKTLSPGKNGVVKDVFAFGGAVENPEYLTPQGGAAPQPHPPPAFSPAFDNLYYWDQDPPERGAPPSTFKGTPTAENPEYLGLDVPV", "assay": "Inhibition of phosphorylation of receptor tyrosine (HER2) in human breast cancer cells MCF-7", "type": "cell-based", "details": "MCF-7 cells, test compound 2 hours, then heregulin 0.8 μg/mL for 5 minutes", "method": "Inhibition of Phosphorylation of Receptor Tyrosine in Human Breast Cancer Cells\nIn each well of a 24-well plate, 500 μl of the cell suspension ([…]) of human breast cancer cell line MCF-7 was seeded and incubated at 37° C. in a 5% carbon dioxide gas incubator. On the next day, 250 μl of a 4-fold serial dilution of a solution of a test compound was added to each well and, 2 hours later, 250 μl of a heregulin solution, which was adjusted so as to be the final concentration of 0.8 μg/mL, was added thereto. After 5 minutes, an extracting solution was added thereto to terminate the reaction as well as to extract a protein. The protein was fractionated by protein electrophoresis and the protein in the electrophoretic gel was transferred to a nylon filter. The filter was reacted with a phosphorylated tyrosine-specific antibody. The reaction product was fluorescence-labeled and was exposed to a photo-film. The intensity of the exposure on the photo-film was quantitated by an image-analyzing apparatus."}, "[4]": {"tested_on": "Human breast cancer cell line BT-474", "assay": "In vivo breast cancer inhibiting effect (BT-474 implanted in nude mice)", "details": "nude mice with BT-474 tumors, orally twice daily 30 mg/kg body weight for 10 days", "method": "In Vivo Breast Cancer Inhibiting Effect\nHuman breast cancer cell line BT-474 (5,000,000 cells) were suspended in a gel-matrix solution. The suspension was subcutaneously implanted in the breast of 6-week-old female Balb/C strain nude mice (Friedman R. et al., Proceedings of the National Academy of Sciences of the U.S.A. Vol. 87, pp. 6698-6702, 1990). At the time of the implantation and seven days after the implantation, an estradiol dipropionate solution (5 mg/mL) was intramuscularly administered to the hind leg for the purpose of enhancing a take ratio of tumors. Fourteen days after the implantation, the diameters of tumors were determined. For the experiment were used 5 mice per group with similar tumor size. Each of compounds (4, 6, 14, 17, 19, 20, 23, 24 and 26) of the present invention was suspended in a 5% gum arabic solution (physiological saline) and administered orally twice daily in dose of 30 mg/kg body weight for 10 days. On the day when the administration was terminated, the diameters of tumors were measured. Tumor volume was calculated by the following equation.\nVolume of tumor=longest diameter×shortest diameter×shortest diameter×½\nThe growth rate of tumors was calculated as the proportion of the value obtained by subtracting the initial volume from the final volume in the group to which the drug was administered, to the value obtained by subtracting the initial volume from the final volume in the control group to which a gum arabic solution was administered."}}, "data": [{"smiles": "FC(F)(F)c1ccc(/C=C/c2nc(COc3ccc(CCCCn4ccnn4)cc3)co2)cc1", "note": "[Reference Example B4, 1-(4-{4-[(2-{(E)-2-[4-(Trifluoromethyl)phenyl]ethenyl}-1,3-oxazol-4-yl)methoxy]phenyl}butyl)-1H-1,2,3-triazole]", "values": [{"measurement": "IC50", "setting": "[1]", "result": "< 0.05", "unit": "µM"}, {"measurement": "Average particle size (μm)", "setting": "[2]", "result": "≤ 4", "unit": "μm"}, {"measurement": "Average particle size (μm)", "setting": "[2]; listed as Reference Example 4B", "result": 3.85, "unit": "μm"}, {"measurement": "IC50", "setting": "[3]", "result": 0.1, "unit": "µM"}, {"measurement": "Inhibition ratio (%)", "setting": "[4]", "result": 5, "unit": "%"}]}]}
